From EP1143976B9, “BETA-D-2', 3' -DIDEHYDRO-2', 3' -DIDEOXY-5-FLUOROCYTIDINE FOR USE IN THE TREATMENT OF HIV INFECTIONS” (priority 1999, dated 2000)
Where “and” joins values, the source holds several entries; their conditions need not be identical. Equal values may be shown once. Read-outs that look alike come from different tables or passages of the source.

What was measured:
[1] = tested on: HIV-1 in acutely infected human PBM cells; test: Median effect and combination index analysis in acutely infected human PBM cells (Day 6); type: cell-based; conditions: Human immunodeficiency virus 1, PBMC, 144 h
Description: (§1) Table 5 provides the median effective concentration and combinations index (C.I.) values for D-D4FC alone and in combination with AZT and D4T in acutely infected human PBM cells (Day6). Table 6 describes the effect of β-D and β-L-D4FC against HIV-1 and cloned viruses I human PBM cells.

[2] = tested on: xxK70N; test: D-D4FC susceptibility of recombinant HIV-1 in MT-2 cells; type: cell-based
Procedure: (§2) Antiviral susceptibility assays. Virus susceptibility to D-D4FC was measured by measuring percent inhibition of p24 antigen production. Briefly, MT-2 cells (1 x 10^5 cells/ml) were infected with virus at a moi of 0.01 in the presence of serial D-D4FC dilutions. Each dilution was tested in triplicate. Culture supernatants were harvested day 7 post infection and assayed for p24 antigen production using a commercial assay (DuPont, NEN Products, Wilmington, Del.).
(§3) Production of mutant recombinant HIV-1. Mutant RT was generated using the Altered SitesII in vitro Mutagenesis System (Promega, Madison, WI). Mutagenesis was carried out on HIV-1LAI, RT cloned into a mutagenesis vector (PALTER, Promega). The presence of the desired mutation was determined by direct sequencing of the RT gene. The mutant RT was subsequently ligated into the pxxHIV-1 LAI vector. Stocks of mutant virus were then prepared by electrophorating 5-10 µg of DNA into 1.3 x 10^7 MT-2 cells as described above.

[3] = tested on: xxK70N//R172K; test: as above; type: cell-based
Procedure: as §2, §3

[4] = tested on: xxK65R; test: as above; type: cell-based
Procedure: as §2, §3

[5] = tested on: xxV90I; test: as above; type: cell-based
Procedure: as §2, §3

[6] = tested on: xxR172K; test: as above; type: cell-based
Procedure: as §2, §3

[7] = tested on: xxV901/R172K; test: as above; type: cell-based
Procedure: as §2, §3

[8] = tested on: 4xM184VPITT (184V,67N,70R,215Y,219Q); test: Effect against cloned viruses, in MT-2 cells; type: cell-based, HIV-1; conditions: for FI50: In MT-2 cells, EC50 relative to HIV-1LAV or xxBRUPITT
[9] = tested on: xxBRUPITT; test: Effect against HIV-1 and cloned viruses in human PBM cells; type: cell-based; conditions: Human immunodeficiency virus 1, PBMC
Description: as §1

[10] = tested on: HIV-1LAV; test: as above; type: cell-based; conditions: Human immunodeficiency virus 1, PBMC
Description: as §1

[11] = tested on: T215YPITT; test: as above; type: cell-based; conditions: for FI50: EC50 relative to HIV-1LAV or xxBRUPITT; for FI90: EC90 relative to HIV-1LAV or xxBRUPITT
Description: as §1

[12] = tested on: M184VPITT; test: as above; type: cell-based; conditions: for FI50: EC50 resistant virus relative to HIV-1LAV or xxBRUPITT; for FI90: EC90 resistant virus relative to HIV-1LAV or xxBRUPITT
Description: as §1

[13] = tested on: 4X AZTPITT (67N,70R,215Y,219Q); test: as above; type: cell-based; conditions: for EC50 / EC90: human PBM cells
Description: as §1

[14] = tested on: 215/41PITT; test: as above; type: cell-based; conditions: for FI50: EC50 relative to HIV-1LAV or xxBRUPITT
Description: as §1

[15] = tested on: M184V/T215YPITT; test: as above; type: cell-based; conditions: for FI50: EC50 relative to HIV-1LAV or xxBRUPITT; for FI90: EC90 relative to HIV-1LAV or xxBRUPITT
Description: as §1

[16] = tested on: HIV-1p37 D-Fd4C#1; test: Antiviral susceptibility assay (p24 antigen) in MT-2 cells, D-D4FC selected virus, selection #1 passage 37; type: cell-based; conditions: V90I, R172K
Procedure: (§4) Selection of resistant virus. Prior to starting the selection of D-D4FC resistant virus, the starting virus (HIV -1LAI) was passaged as cell-free virus for 10 cycles in MT-2 cells in the absence of drug. D-D4FC resistant virus was selected by serially passaging HIV-1LAI in MT-2 cells in the presence of gradually increasing concentrations of D-D4FC. The selection for D-D4FC resistant virus was conducted twice. Selection was initiated by inoculating 1 x 10^6 MT-2 cells with […] of virus. At peak viral cytopathic effect (4-7 days post infection), supernatant from the infected cultures was collected and 0.1-0.3 ml were subsequently used to initiate another cycle of infection. Supernatant was also aliquoted and stored at -80°C for characterization of selected virus. Virus was passaged at least three times at each concentration, the number of cycles at any given concentration of drug being dependent on the ability of virus to grow at the particular concentration of D-D4FC. During the first selection procedure, virus was passaged once in the absence of drug prior to increasing the drug concentration (Table 2). As a control, virus was also passaged in parallel in the absence of drug. […]
Antiviral susceptibility assays. Virus susceptibility to D-D4FC was measured by measuring percent inhibition of p24 antigen production. […]

[17] = tested on: G2-2PITT (103N,41L,184V,210W,others); test: Effect against cloned viruses, in MT-2 cells; type: cell-based, HIV-1; conditions: for FI50: In MT-2 cells, EC50 relative to HIV-1LAV or xxBRUPITT
[18] = tested on: HIV-1LAI; test: Antiviral susceptibility assay (inhibition of p24 antigen production) in MT-2 cells, starting virus; type: cell-based; conditions: Human immunodeficiency virus 1, MT2, 168 h, day 7 post infection, HIV-1LAI P0, wild type baseline
Procedure: Cells. MT-2 cells (AIDS Research and Reference Reagent Program, National Institute of Allergy and Infectious Diseases, National Institutes of Health, contributed by D. Richman) were cultured in RPMI 1640 (Whittaker M.A., Bioproducts, Walkersville, MD) supplemented with 10% fetal bovine serum, 10 mM HEPES buffer, penicillin (50 IU/ml) and streptomycin (50 µg/ml).
Viruses. HIV-1LAI, a molecularly cloned clinical isolate, was used both as the starting virus for the resistance selection as well as for the generation of recombinant mutants. Stock preparations of HIV-1LAI, were prepared by electrophorating 5-10 jig of proviral plasmid DNA into 1.3 x 10^7 MT-2 cells. At peak viral cytopathic effect (generally 7 days post transfection), the supernatant from infected cultures was collected, aliquoted and stored at -80°C until use. Virus preparations were titered by threefold endpoint dilution in MT-2 cells, and the TCID50 was calculated with the Reed and Muench equation.
Antiviral susceptibility assays. Virus susceptibility to D-D4FC was measured by measuring percent inhibition of p24 antigen production. Briefly, MT-2 cells (1 x 10^5 cells/ml) were infected with virus at a moi of 0.01 in the presence of serial D-D4FC dilutions. Each dilution was tested in triplicate. […]

[19] = tested on: HIV-1p20 D-Fd4C#2; test: Antiviral susceptibility assay (p24 antigen) in MT-2 cells, D-D4FC selected virus, selection #2 passage 20; type: cell-based; conditions: mutations K65R, V179D; for EC50: p24 antigen, selection #2 passage 20
Procedure: as §4, §2

[20] = tested on: L-D4FC-res.(25 µM); test: Effect against HIV-1 and cloned viruses in human PBM cells; type: cell-based
Description: as §1

[21] = Human immunodeficiency virus 1, MT2, In MT-2 cells (courtesy of Dr. J. Mellors)
[22] = Human immunodeficiency virus 1, PBMC, human PBM cells
[23] = EC90 relative to HIV-1LAV or xxBRUPITT
[24] = Human immunodeficiency virus 1, PBMC
[25] = acutely infected human PBM cells, Day 6
[26] = median effective concentration, acutely infected human PBM cells, Day 6, read-out: EC50
[27] = In MT-2 cells (courtesy of Dr. J. Mellors)
[28] = human PBM cells, L-D4FC-res.(25 µM) virus

With Cc1cn([C@H]2C[C@H](N=[N+]=[N-])[C@@H](CO)O2)c(=O)[nH]c1=O [AZT, 3'-azido-3'-deoxythymidine] the EC50 [1] was 3.3 nM.
Nc1nc(=O)n([C@H]2C=C[C@@H](CO)O2)cc1F [D-D4FC, β-2',3'-didehydro-2',3'-dideoxy-5-fluorocytidine] was tested, and the EC50 ([2]; Human immunodeficiency virus 1, MT2, recombinant xxK70N) was 240 nM, the “Fold Resistance” value ([2]; xxK70N versus xxLAI, 10080 min) was 1.4 and the EC50 ([3]; Human immunodeficiency virus 1, MT2) was 56 nM. The “Fold Resistance” value ([3]; MT-2 cells, xxK70N/V901/R172K versus xxLAI, 10080 min) was 0.4, the EC50 ([4]; Human immunodeficiency virus 1, MT2, recombinant xxK65R) was 1240 nM and the “Fold Resistance” value ([4]; xxK65R versus xxLAI, 10080 min) was 3.9. The EC50 ([5]; Human immunodeficiency virus 1, MT2, recombinant xxV90I) was 250 nM, the “Fold Resistance” value ([5]; xxV90I versus xxLAI, 10080 min) was 1.5 and the EC50 ([6]; Human immunodeficiency virus 1, MT2, recombinant xxR172K) was 230 nM. The “Fold Resistance” value ([6]; xxR172K versus xxLAI, 10080 min) was 0.8, the EC50 ([7]; Human immunodeficiency virus 1, MT2, recombinant xxV901/R172K) was 360 nM and the “Fold Resistance” value ([7]; xxV901/R172K versus xxLAI, 10080 min) was 1.3. It also gave an EC50 [8, 21] of 45 nM, an FI50 ([8]; listed as β-D-D4FC) of 0.2 and an EC50 [9] of 65 nM. For the same molecule, the EC50 [10] was 220 nM, the EC90 [10] was 1320 nM and the FI50 ([11]; listed as β-D-D4FC) was 1. For the same molecule, the FI90 ([11]; listed as β-D-D4FC) was 1, the EC50 [11, 22] was 67 nM and the EC90 [11, 22] was 350 nM. For the same molecule, the FI50 ([12]; listed as β-D-D4FC) was 2, the FI90 ([12]; listed as β-D-D4FC) was 2 and the EC50 [12, 22] was 140 nM. For the same molecule, the EC90 [12, 22] was 1040 nM, the FI50 ([13]; EC50 relative to HIV-1LAV or xxBRUPITT) was 1 and the FI90 [13, 23] was 1. For the same molecule, the EC50 [13, 24] was 72 nM, the EC90 [13, 24] was 460 nM and the FI50 ([14]; listed as β-D-D4FC) was 2. It also gave an FI90 [14, 23] of 1, an EC50 [14, 22] of 130 nM and an EC90 [14, 22] of 490 nM. It also gave an FI50 ([15]; listed as β-D-D4FC) of 1, an FI90 ([15]; listed as β-D-D4FC) of 1 and an EC50 [15, 22] of 57 nM. The EC90 [15, 22] was 470 nM, the EC50 ([16]; Human immunodeficiency virus 1, MT2, p24 antigen, selection #1 passage 37, mutations K70N) was 4070 nM and the “Fold Resistance” value ([16]; versus wild type HIV-1LAI, mutations K70N, 10080 min) was 19.3 and 19.4. For the same molecule, the EC50 [17, 21] was 40 nM, the FI50 ([17]; listed as β-D-D4FC) was 0.2 and the EC50 [18] was 210 nM. The EC50 ([19]; Human immunodeficiency virus 1, MT2, MT-2 cells) was 1100 nM, the EC50 ([19]; MT-2 cells) was 1110 nM and the “Fold Resistance” value ([19]; MT-2 cells, versus wild type HIV-1LAI, 10080 min) was 5.3. For the same molecule, the EC90 [1, 25] was 78 nM and the EC50 [1, 26] was 7.6 nM.
Work on Nc1nc(=O)n([C@H]2C=C[C@@H](CO)O2)cc1F [β-L-D4FC, β-2',3'-didehydro-2',3'-dideoxy-5-fluorocytidine, reference compound] yielded an EC50 [8, 27] of over 3300 nM, an FI50 [8] of over 47 and an FI50 ([20]; EC50 relative to HIV-1LAV or xxBRUPITT, L-D4FC-res.(25 µM)) of 222. It also gave an FI90 ([20]; EC90 relative to HIV-1LAV or xxBRUPITT, L-D4FC-res.(25 µM)) of 208, an EC50 [20, 28] of 7560 nM and an EC90 [20, 28] of 33300 nM. For the same molecule, the FI50 [11] was 0.2, the FI90 [11] was 0.3 and the FI50 [12] was 146. It also gave an FI90 [12] of 163, an EC50 [13] of 16 nM and an EC90 [13] of 110 nM. The FI50 [14] was 1, the FI50 [15] was 332 and the FI90 [15] was 848. It also gave an EC50 [17, 27] of over 3300 nM and an FI50 [17] of over 47.
Cc1cn([C@H]2C=C[C@@H](CO)O2)c(=O)[nH]c1=O [D4T, 2',3'-dideoxy-2',3'-didehydrothymidine] gave an EC90 [1, 25] of 220 nM and an EC50 [1, 26] of 15 nM.
